Data from US20110040088A1, “FUSED HETEROCYCLIC COMPOUNDS” (priority 2003, published 2011).
Where a name gives a salt, the structure may show the parent alone. Read-outs that look alike come from different tables or passages of the source.

Assays:
rat 5-HT7a receptor = target: T1, rat 5-HT7a receptor (Rattus norvegicus, UniProt P32305); experiment: 5-HT7 receptor radioligand binding ([3H]5-CT, membranes of transfected HEK-293 cells); conditions: rat 5-HT7a in HEK-293 membranes, 1 nM [3H]5-CT
T1 construct: expressed in transfected cells
T1 sequence (P32305 whole entry): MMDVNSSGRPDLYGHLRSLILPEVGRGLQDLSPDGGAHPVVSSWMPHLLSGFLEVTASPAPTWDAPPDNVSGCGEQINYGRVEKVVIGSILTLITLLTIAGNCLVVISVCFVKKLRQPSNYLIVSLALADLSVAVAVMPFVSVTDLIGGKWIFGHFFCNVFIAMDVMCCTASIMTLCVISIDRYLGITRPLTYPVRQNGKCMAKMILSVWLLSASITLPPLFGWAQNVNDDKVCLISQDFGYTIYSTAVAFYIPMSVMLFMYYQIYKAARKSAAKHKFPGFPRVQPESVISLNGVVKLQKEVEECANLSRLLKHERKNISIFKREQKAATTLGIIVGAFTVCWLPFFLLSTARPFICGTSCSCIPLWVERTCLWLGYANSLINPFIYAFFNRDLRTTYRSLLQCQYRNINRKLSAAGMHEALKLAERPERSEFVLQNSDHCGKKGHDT

[1] = target: human recombinant 5-HT2B receptor (Homo sapiens, UniProt P41595); experiment: 5-HT2B receptor radioligand binding ([3H]mesulergine, CHO membranes);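 also: competitive displacement binding on membranes of CHO cells stably expressing the receptor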
human recombinant 5-HT2B receptor, sequence (P41595 whole entry): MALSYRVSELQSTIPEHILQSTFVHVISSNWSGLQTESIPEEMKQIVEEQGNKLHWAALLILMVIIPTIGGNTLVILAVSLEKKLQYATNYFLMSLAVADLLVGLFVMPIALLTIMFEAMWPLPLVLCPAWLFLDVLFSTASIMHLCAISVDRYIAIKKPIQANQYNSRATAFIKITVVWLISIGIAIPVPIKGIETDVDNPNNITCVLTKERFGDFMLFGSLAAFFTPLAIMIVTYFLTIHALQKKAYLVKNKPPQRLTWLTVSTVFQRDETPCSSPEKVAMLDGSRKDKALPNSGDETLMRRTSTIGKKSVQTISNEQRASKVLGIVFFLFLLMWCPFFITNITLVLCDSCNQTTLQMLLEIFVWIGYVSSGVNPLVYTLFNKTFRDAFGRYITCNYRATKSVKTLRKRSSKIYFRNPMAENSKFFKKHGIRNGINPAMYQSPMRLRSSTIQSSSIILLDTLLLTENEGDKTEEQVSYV
Protocol: (§1) Affinity for 5HT2 Receptor Binding Sites
(§2) Receptor binding was performed using the human recombinant 5-HT2A (GB: X57830), 5-HT2B (GB: Z36748) and 5-HT2c (GB: M81778) receptors. The affinity of the compounds for the 3 different human 5-HT2 receptor subtypes was evaluated by competitive radioligand binding assays using [^3H]ketanserin (h5-HT2A) or [^3H]mesulergine (h5-HT2B and h5-HT2c). The assays were performed on membranes prepared from NIH3T3 stably transfected with h5-HT2A or CHO stably transfected with h5-HT2B and h5-HT2C.

5-HT2A receptor = 5-HT2A receptor (UniProt P28223); experiment: 5-HT2A receptor radioligand binding ([3H]ketanserin);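 also: competitive displacement binding on membranes, either from rat cerebral cortex or from NIH3T3 cells stably expressing human 5-HT2A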
Protocol: The affinity of the compounds for the rat 5-HT2A receptor was evaluated by competitive radioligand binding assay using [^3H]ketanserine as the radioligand. The assay was performed on membranes from rat cortex as previously described (Schotte, A. et al., Psychopharmacology (1996) 124: 57-73). Briefly, brain tissue (rat cortex) was homogenized in 20 volumes per wet weight tissue of Tris-HCl buffer (50 mM, pH 7.4). The total membrane fraction was collected by centrifugation and washed by subsequent centrifugation runs (25 min at 25,000 g at 4° C.). Membranes were re-suspended in Tris-HCl buffer (50 mM, pH 7.4) containing 1 nM [^3H]ketanserin. Non-specific binding was estimated in the presence of 10 μM risperidone.

[2] = target: T2, human recombinant 5-HT2C receptor (Homo sapiens, UniProt P28335); experiment: 5-HT2C receptor radioligand binding ([3H]mesulergine, CHO membranes);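 also: competitive displacement of the tritiated ligand, using membranes from CHO cells stably transfected with the human receptor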
T2 sequence (P28335 33-458): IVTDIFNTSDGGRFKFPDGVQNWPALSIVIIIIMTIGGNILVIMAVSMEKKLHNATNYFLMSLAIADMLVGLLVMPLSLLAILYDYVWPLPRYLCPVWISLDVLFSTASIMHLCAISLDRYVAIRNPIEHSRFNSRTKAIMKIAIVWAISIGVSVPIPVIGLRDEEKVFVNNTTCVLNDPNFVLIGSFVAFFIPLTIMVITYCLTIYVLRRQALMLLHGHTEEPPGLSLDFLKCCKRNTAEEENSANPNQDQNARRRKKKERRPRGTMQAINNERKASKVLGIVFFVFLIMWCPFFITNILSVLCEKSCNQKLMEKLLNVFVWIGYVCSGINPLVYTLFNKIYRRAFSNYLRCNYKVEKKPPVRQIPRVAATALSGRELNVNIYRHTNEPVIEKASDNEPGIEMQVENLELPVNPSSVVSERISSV
Protocol: as §1, §2

[3] = read-out: Ki 5-HT2A, table does not say whether rat cortex or human recombinant (NIH3T3) receptor

Row | SMILES | Ki (rat 5-HT7a receptor) | Ki (5-HT2A receptor; [3]) | Ki (5-HT2A receptor; read-out: Ki 5-HT2A, table does not say whether rat cortex or human recombinant (NIH3T3) receptor, citrate salt) | Ki [1] | Ki [2]
1 | CCCCn1cc(-c2ccc(C)cc2)c2c1CCNC2 [Example 22, 1-Butyl-3-p-tolyl-4,5,6,7-tetrahydro-1H-pyrrolo[3,2-c]pyridine] | 0.045 µM |  |  |  | 
2 | CCCN1CCc2c(-c3ccccc3)nn(Cc3ccccc3)c2CC1 [Example 57, 1-Benzyl-3-phenyl-6-propyl-1,4,5,6,7,8-hexahydro-1,2,6-triaza-azulene] | 0.015 µM |  |  |  | 
3 | CCn1nc2c(c1-c1ccc(Cl)cc1)CCNCC2 [Example 64, 3-(4-Chloro-phenyl)-2-ethyl-2,4,5,6,7,8-hexahydro-1,2,6-triaza-azulene] | 0.019 µM | 0.018 µM |  |  | 
4 | Cc1cccc(Cn2nc(-c3ccc(Cl)cc3)c3c2CCNCC3)c1 [Example 74, 3-(4-Chloro-phenyl)-1-(3-methyl-benzyl)-1,4,5,6,7,8-hexahydro-1,2,6-triaza-azulene] | 0.005 µM | 0.1 µM |  | 0.094 µM | 0.18 µM
5 | Fc1ccc(Cn2nc(-c3ccc(Cl)cc3)c3c2CCNCC3)cc1 [Example 75, 3-(4-Chloro-phenyl)-1-(4-fluoro-benzyl)-1,4,5,6,7,8-hexahydro-1,2,6-triaza-azulene] | 0.007 µM | 0.2 µM |  | 0.1 µM | 0.32 µM
6 | Fc1cccc(Cn2nc(-c3ccc(Cl)cc3)c3c2CCNCC3)c1 [Example 76, 3-(4-Chloro-phenyl)-1-(3-fluoro-benzyl)-1,4,5,6,7,8-hexahydro-1,2,6-triaza-azulene] | 0.008 µM | 0.21 µM |  | 0.35 µM | 0.69 µM
7 | OCCCCCn1nc(-c2ccc(Cl)cc2)c2c1CCNCC2 [Example 87, 5-[3-(4-Chloro-phenyl)-5,6,7,8-tetrahydro-4H-1,2,6-triaza-azulen-1-yl]-pentan-1-ol] | 0.033 µM |  |  |  | 
8 | O=[N+]([O-])c1ccc(Cn2nc(-c3ccc(Cl)cc3)c3c2CCNCC3)cc1 [Example 98, 3-(4-Chloro-phenyl)-1-(4-nitro-benzyl)-1,4,5,6,7,8-hexahydro-1,2,6-triaza-azulene] | 0.04 µM |  |  |  | 
9 | CS(=O)(=O)Nc1ccc(Cn2nc(-c3ccccc3)c3c2CCNCC3)cc1 [Example 100, N-[4-(3-Phenyl-5,6,7,8-tetrahydro-4H-1,2,6-triaza-azulen-1-ylmethyl)-phenyl]-methanesulfonamide] | 0.03 µM |  |  |  | 
10 | Clc1ccc(-c2nn(Cc3cccs3)c3c2CCNCC3)cc1 [Example 103, 3-(4-Chloro-phenyl)-1-thiophen-2-ylmethyl-1,4,5,6,7,8-hexahydro-1,2,6-triaza-azulene] | 0.0077 µM | 0.06 µM |  | 0.044 µM | 0.15 µM
11 | c1ccc(Cn2nc(-c3cccs3)c3c2CCNCC3)cc1 [Example 104, 1-Benzyl-3-thiophen-2-yl-1,4,5,6,7,8-hexahydro-1,2,6-triaza-azulene] | 0.009 µM | 0.08 µM |  | 0.052 µM | 0.36 µM
12 | Fc1ccc(Cn2nc(-c3ccc(Cl)cc3)c3c2CCNCC3)c(F)c1 [Example 108, 3-(4-Chloro-phenyl)-1-(2,4-difluoro-benzyl)-1,4,5,6,7,8-hexahydro-1,2,6-triaza-azulene] | 0.009 µM |  |  | 0.1 µM | 0.8 µM
13 | CCC(CC)Cn1nc(-c2ccc(Cl)cc2)c2c1CCNCC2 [Example 114, 3-(4-Chloro-phenyl)-1-(2-ethyl-butyl)-1,4,5,6,7,8-hexahydro-1,2,6-triaza-azulene] | 0.032 µM |  |  | 0.09 µM | 0.4 µM
14 | Clc1ccc(-c2nn(CC3CCCCC3)c3c2CCNCC3)cc1 [Example 117, 3-(4-Chloro-phenyl)-1-cyclohexylmethyl-1,4,5,6,7,8-hexahydro-1,2,6-triaza-azulene] | 0.02 µM |  |  |  | 
15 | Clc1ccc(-c2nn(CC3CCOCC3)c3c2CCNCC3)cc1 [Example 120, 3-(4-Chloro-phenyl)-1-(tetrahydro-pyran-4-ylmethyl)-1,4,5,6,7,8-hexahydro-1,2,6-triaza-azulene] | 0.04 µM |  |  |  | 
16 | c1ccc(Cn2nc3c(c2-c2ccccc2)CCNCC3)cc1 [Example 133, 2-Benzyl-3-phenyl-2,4,5,6,7,8-hexahydro-1,2,6-triaza-azulene] | 0.125 µM | 0.0023 µM |  | 0.0035 µM | 0.01 µM
17 | COc1ccc(CN2CCc3[nH]nc(-c4ccc(Cl)cc4)c3CC2)cc1OC [Example 167, 3-(4-Chloro-phenyl)-6-(3,4-dimethoxy-benzyl)-1,4,5,6,7,8-hexahydro-1,2,6-triaza-azulene] | 0.075 µM |  |  | 0.35 µM | 10 µM
18 | Clc1ccc(-c2nn(-c3ccccc3)c3c2CCNCC3)cc1 [Example 172, 3-(4-Chloro-phenyl)-1-phenyl-1,4,5,6,7,8-hexahydro-1,2,6-triaza-azulene] | 0.037 µM |  |  |  | 
19 | Cc1ccccc1Cn1nc(-c2ccc(Cl)cc2)c2c1CCNCCC2 [Example 174, 3-(4-Chloro-phenyl)-1-(2-methyl-benzyl)-4,5,6,7,8,9-hexahydro-1H-1,2,7-triaza-cyclopentacyclooctene] | 0.04 µM |  |  |  | 
20 | Clc1ccc(-c2c3c(nn2C2CCCCC2)CCNCC3)cc1 [Example 178, 3-(4-Chloro-phenyl)-2-cyclohexyl-2,4,5,6,7,8-hexahydro-1,2,6-triaza-azulene] | 0.085 µM | 0.003 µM |  | 0.003 µM | 
21 | CCC(CC)n1nc2c(c1-c1cccs1)CCNCC2 [Example 191, 2-(1-Ethyl-propyl)-3-thiophen-2-yl-2,4,5,6,7,8-hexahydro-1,2,6-triaza-azulene] | 0.03 µM |  |  |  | 
22 | CCn1nc2c(c1-c1ccc(C)cc1)CCNCC2 [Example 214, 2-Ethyl-3-p-tolyl-2,4,5,6,7,8-hexahydro-1,2,6-triaza-azulene] | 0.005 µM |  |  | 0.002 µM | 0.17 µM
23 | CC(C)n1nc2c(c1-c1ccc([N+](=O)[O-])cc1)CCNCC2 [Example 253, 2-Isopropyl-3-(4-nitro-phenyl)-2,4,5,6,7,8-hexahydro-1,2,6-triaza-azulene] | 0.075 µM |  |  | 0.025 µM | 0.625 µM
24 | CCc1ccc(-c2c3c(nn2CC)CCNCC3)cc1 [Example 257, 2-Ethyl-3-(4-ethyl-phenyl)-2,4,5,6,7,8-hexahydro-1,2,6-triaza-azulene] | 0.009 µM |  |  | 0.002 µM | 0.11 µM

The next lines start with results.

Row | Ki (rat 5-HT7a receptor) | Ki (5-HT2A receptor; [3]) | Ki (5-HT2A receptor; read-out: Ki 5-HT2A, table does not say whether rat cortex or human recombinant (NIH3T3) receptor, citrate salt) | SMILES | Ki [1] | Ki [2]
25 | 0.12 µM |  |  | O=[N+]([O-])c1ccc(-c2cn(Cc3ccccc3)c3c2CNCC3)cc1 [Example 1, 1-Benzyl-3-(4-nitro-phenyl)-4,5,6,7-tetrahydro-1H-pyrrolo[3,2-c]pyridine] |  | 
26 | 0.07 µM |  |  | Cc1c(-c2ccccc2)c2c(n1Cc1ccccc1)CCNC2 [Example 17, 1-Benzyl-2-methyl-3-phenyl-4,5,6,7-tetrahydro-1H-pyrrolo[3,2-c]pyridine] |  | 
27 | 0.025 µM |  |  | Cc1ccc(-c2cn(Cc3ccccc3)c3c2CNCC3)cc1 [Example 18, 1-Benzyl-3-p-tolyl-4,5,6,7-tetrahydro-1H-pyrrolo[3,2-c]pyridine] |  | 
28 | 0.018 µM |  |  | c1ccc(Cn2cc(-c3ccccc3)c3c2CCNCC3)cc1 [Example 26, 1-Benzyl-3-phenyl-1,4,5,6,7,8-hexahydro-pyrrolo[2,3-d]azepine] |  | 
29 | 0.007 µM | 0.009 µM |  | Fc1ccc(-c2nn(Cc3ccccc3)c3c2CCNCC3)cc1 [Example 47, 1-Benzyl-3-(4-fluoro-phenyl)-1,4,5,6,7,8-hexahydro-1,2,6-triaza-azulene] | 0.064 µM | 0.024 µM
30 | 0.017 µM |  |  | C=CCCn1nc(-c2ccc(Cl)cc2)c2c1CCNCC2 [Example 111, 1-But-3-enyl-3-(4-chloro-phenyl)-1,4,5,6,7,8-hexahydro-1,2,6-triaza-azulene] |  | 
31 | 0.008 µM | 0.02 µM |  | CC(C)Cn1nc(-c2ccc(Cl)cc2)c2c1CCNCC2 [Example 118, 3-(4-Chloro-phenyl)-1-isobutyl-1,4,5,6,7,8-hexahydro-1,2,6-triaza-azulene] |  | 
32 | 0.039 µM |  |  | Clc1ccc(-c2nn(Cc3ccc4c(c3)OCO4)c3c2CCNCC3)cc1 [Example 119, 1-Benzo[1,3]dioxo1-5-ylmethyl-3-(4-chloro-phenyl)-1,4,5,6,7,8-hexahydro-1,2,6-triaza-azulene] |  | 
33 | 0.12 µM | 0.007 µM |  | CC(C)Cn1nc2c(c1-c1ccc(Cl)cc1)CCNCC2 [Example 131, 3-(4-Chloro-phenyl)-2-isobutyl-2,4,5,6,7,8-hexahydro-1,2,6-triaza-azulene] | 0.0042 µM | 0.05 µM
34 | 0.03 µM | 0.008 µM |  | CC(C)(C)n1nc2c(c1-c1ccccc1)CCNCC2 [Example 215, 2-tert-Butyl-3-phenyl-2,4,5,6,7,8-hexahydro-1,2,6-triaza-azulene] | 0.095 µM | 
35 | 0.06 µM |  |  | Clc1ccc(-c2nn(C3CCCCCCC3)c3c2CCNCC3)cc1 [Example 255, 3-(4-Chloro-phenyl)-1-cyclooctyl-1,4,5,6,7,8-hexahydro-1,2,6-triaza-azulene] |  | 
36 | 0.005 µM |  | 0.4 µM | Clc1ccc(-c2nn(Cc3ccccc3)c3c2CCNCC3)cc1 [Example 273, 1-Benzyl-3-(4-chloro-phenyl)-1,4,5,6,7,8-hexahydro-1,2,6-triaza-azulene citrate salt] |  | 
